Source: publication PMC6406525, “A Biophysical Approach to the Identification of Novel ApoE Chemical Probes” (Biomolecules, 2019)

What was measured:
Assay type in all cases: binding
[1] = molecular target: T1, ApoE3 (Homo sapiens, UniProt P02649); test: isothermal titration calorimetry (protein injected into compound)
T1 construct: gene APOE; His6-thioredoxin tag removed by HRV 3C protease; E. coli Rosetta2(DE3)
Source text: isothermal titration calorimetry (protein injected into compound) on ApoE3

[2] = molecular target: T2, ApoE4 (Homo sapiens, UniProt P02649, C130R); test: as above
T2 construct: gene APOE; full-length mature ApoE4, codon-optimized gene in pET17b; His6-thioredoxin tag removed by HRV 3C protease; E. coli Rosetta2(DE3)

[3] = molecular target: T3, ApoE2 (Homo sapiens, UniProt P02649, R176C); test: as above
T3 construct: gene APOE; His6-thioredoxin tag removed by HRV 3C protease; E. coli Rosetta2(DE3)
Source text: isothermal titration calorimetry (protein injected into compound) on ApoE2

[4] = molecular target: T2, ApoE4; test: microscale thermophoresis (Red-NHS labelled ApoE4, initial fluorescence)
Source text: microscale thermophoresis (Red-NHS labelled ApoE4, initial fluorescence) on ApoE4

T1 sequence (P02649 19-317): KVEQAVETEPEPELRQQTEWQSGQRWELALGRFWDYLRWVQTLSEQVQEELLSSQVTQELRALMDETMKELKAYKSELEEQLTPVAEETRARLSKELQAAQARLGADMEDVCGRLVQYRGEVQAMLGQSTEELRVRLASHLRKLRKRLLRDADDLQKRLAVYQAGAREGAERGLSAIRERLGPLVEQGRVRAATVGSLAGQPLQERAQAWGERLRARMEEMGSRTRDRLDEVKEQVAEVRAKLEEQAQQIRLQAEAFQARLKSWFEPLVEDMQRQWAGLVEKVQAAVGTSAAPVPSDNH
T3 sequence (P02649 19-317 R176C): as the sequence (P02649 19-317) above, with R158C counted along it
T2 sequence (P02649 19-317 C130R): as the sequence (P02649 19-317) above, with C112R counted along it

| Compound | Kd [1] [µM] | Kd ([2]; read-out: ApoE4) [µM] | Kd [3] [µM] | Kd [4] [µM] | Kd ([2]; read-out: binding affinity) [µM] |
| --- | --- | --- | --- | --- | --- |
| O=C(O)c1cc2ccccc2c(Cc2c(O)c(C(=O)O)cc3ccccc23)c1O [Pamoic acid] | 119 ± 50 | 38 ± 4 | 55 ± 14 |  |  |
| Cc1ccc(C(=O)Nc2ccc(S(=O)(=O)O)c3cc(S(=O)(=O)O)cc(S(=O)(=O)O)c23)cc1NC(=O)c1cccc(NC(=O)Nc2cccc(C(=O)Nc3cc(C(=O)Nc4ccc(S(=O)(=O)O)c5cc(S(=O)(=O)O)cc(S(=O)(=O)O)c45)ccc3C)c2)c1 [Suramin] |  |  |  |  | 3 ± 0.4 |
| CCN(CC)CCOc1ccc(C(=C(Cl)c2ccccc2)c2ccccc2)cc1 [Clomifene] | 24 ± 9 | 15 ± 10 | 67 ± 36 |  |  |
| N[C@@H](Cc1cc(I)c(Oc2cc(I)c(O)c(I)c2)c(I)c1)C(=O)O [L-Thyroxine] | 20 ± 3 | 18 ± 12 | 33 ± 10 |  |  |

Further lines, results first:

| Kd [1] [µM] | Kd ([2]; read-out: ApoE4) [µM] | Kd [3] [µM] | Kd [4] [µM] | Kd ([2]; read-out: binding affinity) [µM] | Compound |
| --- | --- | --- | --- | --- | --- |
|  |  |  | 44 ± 6 |  | CN(C)CCOc1ccc(/C(=C(/CCCl)c2ccccc2)c2ccccc2)cc1 [Toremifene] |
| 47 ± 9 | 45 ± 13 | 47 ± 32 |  |  | Cc1ccc(Cl)c(Nc2ccccc2C(=O)O)c1Cl [Meclofenamic acid] |
|  |  |  | 67 ± 19 |  | CC/C(=C(\c1ccccc1)c1ccc(OCCN(C)C)cc1)c1ccccc1 [Tamoxifen] |
| 8 ± 1 | 8 ± 2 | 6 ± 2 |  |  | O=C(O)c1ccc2nc(-c3cc(Cl)cc(Cl)c3)oc2c1 [Tafamidis] |
